Data: article PMC7023064, “Design, Synthesis, and Evaluation of Novel 2-Methoxyestradiol Derivatives as Apoptotic Inducers through an Intrinsic Apoptosis Pathway” (Biomolecules, 2020)
Like-named read-outs stand apart in the source and are kept apart here.

Columns and labels:
[1] = tested on: normal human liver L-O2 cell lines; test: MTT cytotoxicity assay, L-O2; type: cell-based; conditions: mean ± SD of three experiments, No = No inhibition detected
Procedure: (§1) Human breast adenocarcinoma MCF-7 cell lines, human breast cancer MDA-MB-231 cell lines, and the normal human liver L-O2 cell lines were provided by Nanjing KeyGen Biotech Co. Ltd. (Nanjing, China). MCF-7 cells were cultured in a base medium (90% RPMI-1640 and 10% FBS) at 37 °C, 5% CO2 and a saturated humidity atmosphere. MDA-MB-231 cells were cultured in a base medium (90% […] and 10% FBS) at 37 °C, 5% CO2 and a saturated humidity atmosphere. L-O2 cells were cultured in a base medium (90% DMEM and 10% FBS) at 37 °C, 5% CO2 and a saturated humidity atmosphere.
(§2) The cytotoxicity of the tested compounds was determined using the 3-(4,5-dimethyl-2-thiazolyl)-2,5-diphenyl-2-H-tetrazolium bromide (MTT) assay. Cells were seeded in 96-well plates and incubated in a 5% CO2 incubator at 37 °C. When the cells adhered, compounds at different concentrations were added to every well. After incubation for another 72 h, MTT solution (5 mg/mL) was added into each well and cells were incubated for an additional 4 h. The viable cells were stained with MTT and scanned with an electrophotometer at 570 nm. Each concentration treatment was done in triplicate wells. The half maximal inhibitory concentration (IC50) values were estimated by fitting the inhibition data to a dose-dependent curve using a logistic derivative equation.

[2] = tested on: MCF-7 and MDA-MB-231 cell lines; test: MTT assay, summary over tested tumor cells; type: cell-based, human; conditions: for selectivity towards cancerous cell lines vs healthy cell line: MCF-7 and MDA-MB-231 vs L-O2
Procedure: as §1, §2

[3] = tested on: human breast cancer MDA-MB-231 cell lines; test: MTT cytotoxicity assay, MDA-MB-231; type: cell-based; conditions: mean ± SD of three experiments
Procedure: as §1, §2

MCF-7 cells [4] = test: Western blotting of apoptosis proteins; type: cell-based, human; conditions: 0, 5, 10, and 20 µM, 72 h, β-actin as control
Procedure: After the treatment of MCF-7 cells with compound 11/12a (0, 5, 10, and 20 μM) for 72 h, the total proteins of MCF-7 cells were extracted and their concentrations were balanced to the same level by BCA protein assay reagent (KGP902, KeyGen Biotech Co. Ltd., Nanjing, China), followed by 8 min of protein denaturation with SDS loading buffer at 100 °C. Proteins were separated by sodium dodecyl sulfate-polyacrylamide electrophoresis (SDS-PAGE) and transferred onto polyvinylidene fluoride (PVDF) membranes, which were blocked with 5 mL of 5% fat-free dry milk in 1× Tris-buffered saline (TBS) containing 0.05% Tween 20 for 2 h. Then the membranes were incubated with Apaf-1 (Abcam, no: ab234436), Bax (Abcam, no: ab32503), Bcl-2 (Abcam, no: ab692), Bcl-xL (Abcam, no: ab32370), caspase-3 (Abcam, no: ab184787), caspase-8 (Abcam, no: ab25901), caspase-9 (Abcam, no: ab219590), cytochrome c (Abcam, no: ab133504), and β-actin (Abcam, no: ab8226) antibodies at 4 °C overnight, followed by treatment with secondary horseradish-peroxidase-conjugated anti-rabbitIgG (KeyGen Biotech Co. Ltd., no: KGAA35) for 2 h. Membranes were finally scanned in a ChemiDoc MP Imaging System (Bio-Rad) after 2 min incubation in Clarity Western ECL Substrate (Bio-Rad).

[5] = tested on: human breast adenocarcinoma MCF-7 cell lines; test: MTT cytotoxicity assay, MCF-7; type: cell-based
Procedure: as §1, §2

MCF-7 cells [6] = test: Mitochondrial membrane potential analysis (JC-1, flow cytometry); type: cell-based, human; conditions: 72 h, JC-1 (lower right quadrant)
Procedure: MCF-7 cells were incubated in triplicate and treated with compound 11/12a for 72 h. The cells were washed with PBS and stained with JC-1 dye (Keygen, KGA601) under dark conditions according to the manufacturer’s instructions. After incubation, the cells were washed twice with PBS, and the percentage of cells with collapsed or healthy mitochondrial membrane potentials (MMP) was monitored by flow cytometry analysis (FACS Calibur Becton-Dickinson, San Jose, California, USA).

[7] = tested on: MCF-7 breast cancer cells; test: Real-time polymerase chain reaction of apoptosis genes; type: cell-based, human; conditions: 5, 10, and 20 μM, GAPDH as control
Procedure: RNA was isolated using Trizol Reagent (Invitrogen, Carlsbad, California, USA). cDNA was made via the manufacturer’s instructions with the first chain of a cDNA synthesizing kit (Fermentas, Lithuania). Real-time polymerase chain reaction (RT-PCR) was performed on a Da An Gene DA7600 Real Time machine using Da An Gene incorporation (ZhongShan, China). The 2^−ΔΔCT method was used to calculate the relative levels of gene expression using Da An Gene DA7600 QPCR software v3.00 (Da An Gene). The GAPDH (human) expression was used as the internal control. A standard melting-curve cycle was used to confirm the quality of amplification. The reactions were performed in triplicate for each sample. The gene-specific primers were designed with the Primer5 BLAST software by GenScript Co., Ltd. (Nanjing, China): • 1 GAPDH (human): primer (122 bp), • Sense primer: 5′ […] 3’ • Antisense primer: 5′ […] 3′ • 2 Apaf-1 (human): primer (134 bp), • Sense primer: 5′ […] 3′ • Antisense primer: 5′ […] 3′ • 3 Bax (human): primer (112 bp), • Sense primer: 5 ′TTGCTTCAGGGTTTCATCC 3′ • Antisense primer: 5′ […] 3′ • 4 Bcl-2 (human): primer (116 bp), • Sense primer: 5′ […] 3′ • Antisense primer: 5′ […] 3′ • 5 Bcl-xL (human): primer (124 bp), • Sense primer: 5′ […] 3′ • Antisense primer: 5′ […] 3′ • 6 Caspase-3 (human): primer (131 bp), • Sense primer: 5′ […] 3′ • Antisense primer: 5′ […] 3′ • 7 Caspase-8 (human): primer (122 bp), • Sense primer: 5′ […] 3′ • Antisense primer: 5′ […] 3′ • 8 Caspase-9 (human): primer (136 bp), • Sense primer: 5′ […] 3′ • Antisense primer: 5′ […] 3′ • 9 Cytochrome c (human): primer (127 bp), • Sense primer: 5′ […] 3′ • Antisense primer: 5′ […] 3′

Compound | IC50 ([1]; 72 h) [µM] | selectivity towards cancerous cell lines vs healthy cell line [2] | IC50 ([3]; 72 h) [µM] | protein expressions of Apaf-1, Bax, caspase-3, caspase-8, caspase-9, and cytochrome c (MCF-7 cells [4]) | protein expressions of Bcl-2 and Bcl-xL (MCF-7 cells [4]) | IC50 ([5]; MTT, 72 h, mean ± SD of three experiments, read-out: IC50 MCF-7) [µM] | IC50 ([5]; Table 2, mean ± SD of three experiments, read-out: IC50 for MCF-7) [µM] | pIC50 for MCF-7 ([5]; pIC50 = −log(IC50)) | MCF-7 cells with collapsed MMP (MCF-7 cells [6]; 5 μM) [%] | MCF-7 cells with collapsed MMP (MCF-7 cells [6]; 10 μM) [%] | MCF-7 cells with collapsed MMP (MCF-7 cells [6]; 20 μM) [%] | mRNA expression levels of Apaf-1, Bax, caspase-3, caspase-8, caspase-9, and cytochrome c [7] | mRNA expression levels of Bcl-2 and Bcl-xL [7] | IC50 ([1]; Homo sapiens, L02, 72 h) [µM] | IC50 ([2]; Homo sapiens, MCF-7 and MDA-MB-231, read-out: IC50, anti-proliferative activity against tested tumor cells) [µM] | IC50 ([3]; Homo sapiens, MDA-MB-231, 72 h) [µM] | melting point [°C] | IC50 ([5]; Homo sapiens, MCF7, MTT, 72 h, mean ± SD of three experiments, read-out: IC50 MCF-7) [µM] | IC50 ([5]; Homo sapiens, MCF7, Table 2, mean ± SD of three experiments, read-out: IC50 for MCF-7) [µM] | IC50 ([5]; Homo sapiens, MCF7, pIC50 = −log(IC50), read-out: pIC50 for MCF-7 (converted)) [µM]
17 β-[6-(Uracil-3-yl)-Hexyloxy]-2-Methoxy-Estra-1,3,5(10)-Triene-3-ol [Compound 12a] | 69.3 ± 4.37 | about 6 fold | 13 ± 0.38 | increased in a dose-dependent manner | obviously decreased | 11.2 ± 0.46 | 11.2 ± 0.46 | 4.95 | 8.78 | 14.56 | 39.75 | upregulated | downregulated | – | – | – | – | – | – | –
COc1cc2c(cc1O)CC[C@@H]1[C@@H]2CC[C@]2(C)[C@@H](OCCCCCCCCn3c(=O)ccn([C@@H]4O[C@H](CO)[C@@H](O)[C@H]4O)c3=O)CC[C@@H]12 [Compound 11, 17 β-[8-(1-β-D-Ribofuranosyluracil-3-yl)-Octyloxy]-2-Methoxy-Estra-1,3,5(10)-Triene-3-ol] | – | ~7 fold | – | increased in a dose-dependent manner | obviously decreased | – | – | – | 7.95 | 14.13 | 38.88 | upregulated | downregulated | > 100 | 3.89 to 16.7 | 14 ± 1.08 | 95 to 96 | 13.9 ± 0.16 | 13.9 ± 0.16 | 13.8
